One experiment concerns Aß-aggregation. To be noted: at 10 µM; previously reported; cited from earlier work.
The target of experiment [1] is T1, BChE (Homo sapiens, UniProt P06276). To be noted: at 10 µM; previously reported; cited from earlier work.
Another experiment relates to hBACE-1. The conditions noted are these: at 50 µM; previously reported; cited from earlier work.
The target in experiment [2] is T2, AChE (Homo sapiens, UniProt P22303). Put plainly: biochemical. To be noted: mean ± SD; modified Ellman, 37 °C, pH 7.4. Background: In Ellman's method for cholinesterases, released thiocholine reacts with DTNB.
T2 sequence (P22303 32-614): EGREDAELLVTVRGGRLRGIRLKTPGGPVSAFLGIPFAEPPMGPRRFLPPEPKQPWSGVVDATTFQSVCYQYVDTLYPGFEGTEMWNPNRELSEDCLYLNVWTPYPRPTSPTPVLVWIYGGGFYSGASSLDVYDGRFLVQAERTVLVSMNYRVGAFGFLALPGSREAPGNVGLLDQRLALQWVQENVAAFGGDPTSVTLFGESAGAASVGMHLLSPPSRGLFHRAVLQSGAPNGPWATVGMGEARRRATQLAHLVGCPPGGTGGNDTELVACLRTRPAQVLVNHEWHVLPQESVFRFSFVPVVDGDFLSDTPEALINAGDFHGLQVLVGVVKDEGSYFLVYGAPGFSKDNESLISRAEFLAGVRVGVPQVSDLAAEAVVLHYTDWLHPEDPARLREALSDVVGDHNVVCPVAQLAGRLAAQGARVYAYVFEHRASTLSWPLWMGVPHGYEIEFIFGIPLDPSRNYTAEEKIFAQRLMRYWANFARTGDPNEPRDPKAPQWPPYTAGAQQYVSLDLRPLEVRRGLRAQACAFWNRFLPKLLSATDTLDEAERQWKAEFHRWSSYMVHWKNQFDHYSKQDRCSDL
Experiment [3] has as its target T2, AChE. As to the kind of experiment: Enzyme kinetics against AChE (Lineweaver–Burk). Format: biochemical. As for the experimental part:
(§1) The ChE inhibition reactions were determined by Ellman’s assay at different concentrations of 8a and 8g. […]. The inhibition constant Ki was calculated by the plot of slopes versus the corresponding concentrations of the inhibitors.

Experiment [4] addresses T1, BChE. Put plainly: biochemical. To be noted: mean ± SD; modified Ellman, 37 °C, pH 7.4.
Experiment [5] deals with T1, BChE. As to the kind of experiment: Enzyme kinetics against BChE (Lineweaver–Burk). Format: biochemical. As for the experimental part: as §1
Experiment [6] addresses T1, BChE. To be noted: previously reported; cited from earlier work.
Setting [7] is: secondary plot of Lineweaver–Burk plots.

Like-named read-outs stand apart in the source and are kept apart here.

T1 sequence (P06276 29-602): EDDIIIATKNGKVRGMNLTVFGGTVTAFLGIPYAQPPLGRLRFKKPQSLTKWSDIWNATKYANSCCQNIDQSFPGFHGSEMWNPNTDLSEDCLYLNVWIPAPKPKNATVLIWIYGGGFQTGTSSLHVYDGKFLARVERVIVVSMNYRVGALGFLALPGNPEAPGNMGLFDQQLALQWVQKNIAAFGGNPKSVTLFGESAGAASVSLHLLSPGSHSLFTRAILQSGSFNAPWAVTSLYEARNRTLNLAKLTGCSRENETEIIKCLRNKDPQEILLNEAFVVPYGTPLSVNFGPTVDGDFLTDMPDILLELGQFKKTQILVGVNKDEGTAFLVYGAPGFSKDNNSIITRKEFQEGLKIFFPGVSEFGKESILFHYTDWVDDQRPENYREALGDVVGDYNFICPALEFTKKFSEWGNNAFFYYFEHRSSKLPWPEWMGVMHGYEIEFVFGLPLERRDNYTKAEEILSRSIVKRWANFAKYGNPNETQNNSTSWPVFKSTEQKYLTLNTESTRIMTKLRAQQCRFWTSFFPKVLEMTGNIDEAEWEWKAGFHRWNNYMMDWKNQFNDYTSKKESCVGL

Consider “2-(benzylamino-2-hydroxyalkyl)isoindoline-1,3-dione”, for which, in the experiment with Aß-aggregation, the Aß-aggregation inhibition is recorded as 24.9%. For the same compound, the BChE inhibition on BChE [1] is 14.1% ± 5.8. The hBACE-1 inhibition with hBACE-1 is 43.7%.

The term IC50 denotes the concentration at which inhibition is half-maximal. A word on the Ki: it is a dissociation constant, usually derived from enzyme kinetics or from competition with a known ligand. Higher therefore signals a looser hold on the target. In the case of `CN(CC(=O)NN=Cc1ccccc1OCCCN1C(=O)c2ccccc2C1=O)Cc1ccccc1` [Compound 8a, 2-(benzyl(methyl)amino)-Nʹ-(2-(3-(1,3-dioxoisoindolin-2-yl)propoxy)benzylidene)acetohydrazide], the values for the half-maximal inhibitory concentration (IC50) against AChE [2] and against BChE [4] were 0.11 ± 0.05 µM and 30.2 ± 2.8 µM, respectively. For the same compound, the “mode of inhibition against AChE” value on AChE [3] (Lineweaver–Burk plot) is listed as “competitive”. Further, the Ki on AChE [3] (setting [7]) amounted to 0.0886 µM.

For the compound `CCN(CC(=O)NN=Cc1ccccc1OCCCN1C(=O)c2ccccc2C1=O)Cc1ccccc1` [Compound 8b, 2-(benzyl(ethyl)amino)-Nʹ-(2-(3-(1,3-dioxoisoindolin-2-yl)propoxy)benzylidene)acetohydrazide], the IC50 against AChE [2] was 0.18 ± 0.01 µM; at BChE [4], 26.8 ± 0.8 µM.

With `CCN(CC(=O)NN=Cc1cc([N+](=O)[O-])ccc1OCCCN1C(=O)c2ccccc2C1=O)Cc1ccccc1` [Compound 8c, 2-(benzyl(ethyl)amino)-Nʹ-(2-(3-(1,3-dioxoisoindolin-2-yl)propoxy)-5-nitrobenzylidene)acetohydrazide], the IC50 was 0.16 ± 0.04 µM at AChE [2] and 21.8 ± 1.3 µM on BChE [4].

Consider `CCN(CC(=O)NN=Cc1cccc(OCCCN2C(=O)c3ccccc3C2=O)c1)Cc1ccccc1` [Compound 8d, 2-(benzyl(ethyl)amino)-N'-(3-(3-(1,3-dioxoisoindolin-2-yl)propoxy)benzylidene)acetohydrazide], for which the values for the IC50 against AChE [2] and against BChE [4] were 0.16 ± 0.03 µM and 11.8 ± 0.5 µM, respectively.

With `CCN(CC(=O)NN=Cc1ccc(OC)c(OCCCN2C(=O)c3ccccc3C2=O)c1)Cc1ccccc1` [Compound 8e, 2-(benzyl(ethyl)amino)-Nʹ-(3-(3-(1,3-dioxoisoindolin-2-yl)propoxy)-4-methoxybenzylidene)acetohydrazide], the results for the IC50 against AChE [2] and on BChE [4] were 0.21 ± 0.03 µM and 14.7 ± 0.2 µM, respectively.

On to `CN(CC(=O)NN=Cc1ccc(OCCCN2C(=O)c3ccccc3C2=O)cc1)Cc1ccccc1` [Compound 8f, 2-(benzyl(methyl)amino)-Nʹ-(4-(3-(1,3-dioxoisoindolin-2-yl)propoxy)benzylidene)acetohydrazide], for which the figures for the IC50 on AChE [2] and on BChE [4] were 0.32 ± 0.02 µM and 15.7 ± 1.2 µM, respectively.

For `CCN(CC(=O)NN=Cc1ccc(OCCCN2C(=O)c3ccccc3C2=O)cc1)Cc1ccccc1` [Compound 8g, 2-(benzyl(ethyl)amino)-Nʹ-(4-(3-(1,3-dioxoisoindolin-2-yl)propoxy)benzylidene)acetohydrazide], on BChE [5] (Lineweaver–Burk plot), the “mode of inhibition against BChE” value was “competitive”. Affinity on BChE [5] (setting [7]) was put at a Ki of 3.65 µM. For the same compound, the IC50 was found to be 0.86 ± 0.02 µM at AChE [2] and 5.7 ± 0.2 µM against BChE [4].

Consider `CCN(CC(=O)NN=Cc1ccc(OCCCN2C(=O)c3ccccc3C2=O)c(OC)c1)Cc1ccccc1` [Compound 8h, 2-(benzyl(ethyl)amino)-Nʹ-(4-(3-(1,3-dioxoisoindolin-2-yl)propoxy)-3-methoxybenzylidene)acetohydrazide], for which the IC50 worked out at 0.17 ± 0.06 µM on AChE [2] and 13.2 ± 1.4 µM at BChE [4].

As to `CN(C)C(=O)Oc1cccc([N+](C)(C)C)c1` [neostigmine], the IC50 at BChE [6] was 0.084 µM.

As for `Oc1ccc(/C=C/c2cc(O)cc(O)c2)cc1` [resveratrol], the Aß-aggregation inhibition in the experiment with Aß-aggregation is reported as 78.5% ± 5.2.

The record behind these values is publication PMC10985906, “Anticholinesterase activities of novel isoindolin-1,3-dione-based acetohydrazide derivatives: design, synthesis, biological evaluation, molecular dynamic study” (BMC Chemistry, 2024).
